Experimental data: patent publication EP4667467A1, “PROTAC DEGRADERS OF MLLT1 AND/OR MLLT3” (Dark Blue Therapeutics Ltd, priority 2024, dated 2025)

Biological target: T1, MLLT1 (Homo sapiens, UniProt Q03111)
T1 construct: endogenous in cells; host or cells: MV4-11 (ATCC CRL-9591)
T1 sequence (Q03111 1-559): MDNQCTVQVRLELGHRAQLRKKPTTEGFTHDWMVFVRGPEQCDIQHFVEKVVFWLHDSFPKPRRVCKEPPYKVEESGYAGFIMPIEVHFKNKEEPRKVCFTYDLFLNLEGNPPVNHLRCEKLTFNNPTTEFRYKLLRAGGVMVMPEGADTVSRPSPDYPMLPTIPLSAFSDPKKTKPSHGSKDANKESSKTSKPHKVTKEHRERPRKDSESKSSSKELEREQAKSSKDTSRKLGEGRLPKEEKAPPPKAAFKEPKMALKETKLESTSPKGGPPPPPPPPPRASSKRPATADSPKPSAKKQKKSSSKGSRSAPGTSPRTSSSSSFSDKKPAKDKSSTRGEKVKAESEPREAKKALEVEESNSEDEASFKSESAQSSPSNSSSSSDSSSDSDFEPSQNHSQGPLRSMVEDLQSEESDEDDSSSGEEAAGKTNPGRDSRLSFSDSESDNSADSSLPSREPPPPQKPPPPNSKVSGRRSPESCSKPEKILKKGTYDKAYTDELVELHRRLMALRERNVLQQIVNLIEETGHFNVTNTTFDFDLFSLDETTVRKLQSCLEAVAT
Test: MLLT1 Degradation Assay (JESS automated chemiluminescent detection, MV4-11 cells)
Assay type: cell-based
Conditions: 24h, with respect to DMSO control; for MLLT1 % Degradation @ 0.01 µM: 0.01 µM (10 nM) test compound; for MLLT1 % Degradation @ 0.1 µM: 0.1 µM (100 nM) test compound; for MLLT 1 % Degradation @ 1 µM: 1 µM (1000 nM) test compound
Protocol: MLLT1 degradation efficacy of compounds were tested in an automated chemiluminescent detection system (JESS, Cat# 004-650). […] 10 mM DMSO stocks were prepared, and cells were treated with three concentrations of test compounds viz. 1000, 100 and 10 nM at a final DMSO concentration of 0.1% and incubated for 24h at 37°C, 5% CO2. […] Post run, data were analysed using "Compass for SW" software for chemiluminescent detection. The peak area for each band was used for the calculation of MLLT1 degradation with respect to DMSO control. Data is shown as "MLLT1 % degradation".

| SMILES | MLLT1 % Degradation @ 0.01 µM | MLLT1 % Degradation @ 0.1 µM | MLLT 1 % Degradation @ 1 µM |
| --- | --- | --- | --- |
| CN1CCC[C@@H]1c1cc2cnc(NC(=O)c3cccc(C4CCN(c5cccc6c5C(=O)N(C5CCC(=O)NC5=O)C6=O)CC4)c3)cc2[nH]1 (stereo partly drawn) [Example 14, 3-(1-(2-(2,6-dioxopiperidin-3-yl)-1,3-dioxoisoindolin-4-yl)piperidin-4-yl)-N-(2-((R)-1-methylpyrrolidin-2-yl)-1H-pyrrolo[3,2-c]pyridin-6-yl)benzamide] | B (Category B: 50% ≤ B < 75% degradation) | A (Category A: A ≥ 75% degradation) | A (Category A: A ≥ 75% degradation) |
| CN1CCC[C@@H]1c1cc2cnc(NC(=O)c3ccc(C4CCN(c5cccc6c5C(=O)N(C5CCC(=O)NC5=O)C6=O)CC4)cc3)cc2[nH]1 (stereo partly drawn) [Example 15, 4-(1-(2-(2,6-dioxopiperidin-3-yl)-1,3-dioxoisoindolin-4-yl)piperidin-4-yl)-N-(2-((R)-1-methylpyrrolidin-2-yl)-1H-pyrrolo[3,2-c]pyridin-6-yl)benzamide] | B (Category B: 50% ≤ B < 75% degradation) | A (Category A: A ≥ 75% degradation) | B (Category B: 50% ≤ B < 75% degradation) |
| CN1CCC[C@@H]1c1cc2cnc(NC(=O)c3ccc(N4CCC(CC#Cc5cccc6c5CN(C5CCC(=O)NC5=O)C6=O)CC4)nc3)cc2[nH]1 (stereo partly drawn) [Example 16, 6-(4-(3-(2-(2,6-dioxopiperidin-3-yl)-1-oxoisoindolin-4-yl)prop-2-yn-1-yl)piperidin-1-yl)-N-(2-((R)-1-methylpyrrolidin-2-yl)-1H-pyrrolo[3,2-c]pyridin-6-yl)nicotinamide] | A (Category A: A ≥ 75% degradation) | A (Category A: A ≥ 75% degradation) | B (Category B: 50% ≤ B < 75% degradation) |
| CN1CCC[C@@H]1c1cc2cnc(NC(=O)c3ccc(N4CCC(C#Cc5cccc6c5CN(C5CCC(=O)NC5=O)C6=O)CC4)nc3)cc2[nH]1 (stereo partly drawn) [Example 17, 6-(4-((2-(2,6-dioxopiperidin-3-yl)-1-oxoisoindolin-4-yl)ethynyl)piperidin-1-yl)-N-(2-((R)-1-methylpyrrolidin-2-yl)-1H-pyrrolo[3,2-c]pyridin-6-yl)nicotinamide] | A (Category A: A ≥ 75% degradation) | A (Category A: A ≥ 75% degradation) | A (Category A: A ≥ 75% degradation) |
| CN1CCC[C@@H]1c1cc2cnc(NC(=O)c3ccc(N4CCC(OCC5CCN(c6cccc7c6C(=O)N(C6CCC(=O)NC6=O)C7=O)CC5)CC4)nc3)cc2[nH]1 (stereo partly drawn) [Example 18, 6-(4-((1-(2-(2,6-dioxopiperidin-3-yl)-1,3-dioxoisoindolin-4-yl)piperidin-4-yl)methoxy)piperidin-1-yl)-N-(2-((R)-1-methylpyrrolidin-2-yl)-1H-pyrrolo[3,2-c]pyridin-6-yl)nicotinamide] | B (Category B: 50% ≤ B < 75% degradation) | A (Category A: A ≥ 75% degradation) | A (Category A: A ≥ 75% degradation) |
| CN1CCC[C@@H]1c1cc2cnc(NC(=O)c3ccc(OCCC#Cc4cccc5c4CN(C4CCC(=O)NC4=O)C5=O)cc3)cc2[nH]1 (stereo partly drawn) [Example 19, 4-((4-(2-(2,6-dioxopiperidin-3-yl)-1-oxoisoindolin-4-yl)but-3-yn-1-yl)oxy)-N-(2-((R)-1-methylpyrrolidin-2-yl)-1H-pyrrolo[3,2-c]pyridin-6-yl)benzamide] | B (Category B: 50% ≤ B < 75% degradation) | A (Category A: A ≥ 75% degradation) | A (Category A: A ≥ 75% degradation) |
| CN1CCC[C@@H]1c1cc2cnc(NC(=O)c3ccc(-c4cnn(CCCC#Cc5cccc6c5CN(C5CCC(=O)NC5=O)C6=O)c4)cc3)cc2[nH]1 (stereo partly drawn) [Example 21, 4-(1-(5-(2-(2,6-dioxopiperidin-3-yl)-1-oxoisoindolin-4-yl)pent-4-yn-1-yl)-1H-pyrazol-4-yl)-N-(2-((R)-1-methylpyrrolidin-2-yl)-1H-pyrrolo[3,2-c]pyridin-6-yl)benzamide] | A (Category A: A ≥ 75% degradation) | A (Category A: A ≥ 75% degradation) | B (Category B: 50% ≤ B < 75% degradation) |
| CN1CCC[C@@H]1c1cc2cnc(NC(=O)c3ccc(-c4cnn(CCCC#Cc5ccc6c(c5)CN(C5CCC(=O)NC5=O)C6=O)c4)cc3)cc2[nH]1 (stereo partly drawn) [Example 22, 4-(1-(5-(2-(2,6-dioxopiperidin-3-yl)-1-oxoisoindolin-5-yl)pent-4-yn-1-yl)-1H-pyrazol-4-yl)-N-(2-((R)-1-methylpyrrolidin-2-yl)-1H-pyrrolo[3,2-c]pyridin-6-yl)benzamide] | A (Category A: A ≥ 75% degradation) | A (Category A: A ≥ 75% degradation) | A (Category A: A ≥ 75% degradation) |
| CN1CCC[C@@H]1c1cc2cnc(NC(=O)c3ccc(OCC#Cc4cccc5c4CN(C4CCC(=O)NC4=O)C5=O)c(Cl)c3)cc2[nH]1 (stereo partly drawn) [Example 23, 3-chloro-4-((3-(2-(2,6-dioxopiperidin-3-yl)-1-oxoisoindolin-4-yl)prop-2-yn-1-yl)oxy)-N-(2-((R)-1-methylpyrrolidin-2-yl)-1H-pyrrolo[3,2-c]pyridin-6-yl)benzamide] | C (Category C: 25% ≤ C < 50% degradation) | C (Category C: 25% ≤ C < 50% degradation) | C (Category C: 25% ≤ C < 50% degradation) |
| C[C@@H](C#Cc1cccc2c1CN(C1CCC(=O)NC1=O)C2=O)Oc1ccc(C(=O)Nc2cc3[nH]c([C@H]4CCCN4C)cc3cn2)cc1 (stereo partly drawn) [Example 24, 4-(((2S)-4-(2-(2,6-dioxopiperidin-3-yl)-1-oxoisoindolin-4-yl)but-3-yn-2-yl)oxy)-N-(2-((R)-1-methylpyrrolidin-2-yl)-1H-pyrrolo[3,2-c]pyridin-6-yl)benzamide] | A (Category A: A ≥ 75% degradation) | A (Category A: A ≥ 75% degradation) | A (Category A: A ≥ 75% degradation) |
| C[C@H](C#Cc1cccc2c1CN(C1CCC(=O)NC1=O)C2=O)Oc1ccc(C(=O)Nc2cc3[nH]c([C@H]4CCCN4C)cc3cn2)cc1 (stereo partly drawn) [Example 25, 4-(((2R)-4-(2-(2,6-dioxopiperidin-3-yl)-1-oxoisoindolin-4-yl)but-3-yn-2-yl)oxy)-N-(2-((R)-1-methylpyrrolidin-2-yl)-1H-pyrrolo[3,2-c]pyridin-6-yl)benzamide] | A (Category A: A ≥ 75% degradation) | A (Category A: A ≥ 75% degradation) | A (Category A: A ≥ 75% degradation) |
| CN1CCC[C@@H]1c1cc2cnc(NC(=O)c3cccc(OCCCCCCCC#Cc4cccc5c4C(=O)N(C4CCC(=O)NC4=O)C5=O)c3)cc2[nH]1 (stereo partly drawn) [Example 26, 3-((9-(2-(2,6-dioxopiperidin-3-yl)-1,3-dioxoisoindolin-4-yl)non-8-yn-1-yl)oxy)-N-(2-((R)-1-methylpyrrolidin-2-yl)-1H-pyrrolo[3,2-c]pyridin-6-yl)benzamide] | D (Category D: D < 25% degradation) | D (Category D: D < 25% degradation) | C (Category C: 25% ≤ C < 50% degradation) |
| CN1CCC[C@@H]1c1cc2cnc(NC(=O)CCCCCCNc3ccc4c(c3)C(=O)N(C3CCC(=O)NC3=O)C4=O)cc2[nH]1 (stereo partly drawn) [Example 27, 7-{[2-(2,6-dioxopiperidin-3-yl)-1,3-dioxoisoindol-5-yl]amino}-N-{2-[(2R)-1-methylpyrrolidin-2-yl]-1H-pyrrolo[3,2-c]pyridin-6-yl}heptanamide] | C (Category C: 25% ≤ C < 50% degradation) | C (Category C: 25% ≤ C < 50% degradation) | B (Category B: 50% ≤ B < 75% degradation) |
| CN1CCC[C@@H]1c1cc2cnc(NC(=O)CCCCCCNc3cccc4c3C(=O)N(C3CCC(=O)NC3=O)C4=O)cc2[nH]1 (stereo partly drawn) [Example 29, 7-{[2-(2,6-dioxopiperidin-3-yl)-1,3-dioxoisoindol-4-yl]amino}-N-{2-[(2R)-1-methylpyrrolidin-2-yl]-1H-pyrrolo[3,2-c]pyridin-6-yl}heptanamide] | D (Category D: D < 25% degradation) | C (Category C: 25% ≤ C < 50% degradation) | A (Category A: A ≥ 75% degradation) |
| CN1CCC[C@@H]1c1cc2cnc(NC(=O)CCCCCCCCNc3cccc4c3C(=O)N(C3CCC(=O)NC3=O)C4=O)cc2[nH]1 (stereo partly drawn) [Example 30, 9-{[2-(2,6-dioxopiperidin-3-yl)-1,3-dioxoisoindol-4-yl]amino}-N-{2-[(2R)-1-methylpyrrolidin-2-yl]-1H-pyrrolo[3,2-c]pyridin-6-yl}nonanamide] | C (Category C: 25% ≤ C < 50% degradation) | B (Category B: 50% ≤ B < 75% degradation) | A (Category A: A ≥ 75% degradation) |
